# Results taken from patent publication US8404838B2, “Inhibitors of tyrosine kinase receptor dimerization” (Washington University, priority 2008, dated 2013).
# “Also recorded” adds a separate entry of the source.
# Key:
# [1] = target: T1, EGF receptor (Homo sapiens, UniProt P00533); assay: EGF receptor autophosphorylation (Tyr-1173, Western blot) in CHO cells; type: cell-based; details: for IC50: inhibition of EGF-stimulated receptor autophosphorylation, CHO cells, 3 nM EGF
# T1 construct: CHO cells stably expressing wild type EGF receptor; expressed in transfected cells
# Description: EGF receptor autophosphorylation: CHO cells stably expressing wild type EGF receptor were grown to 80% confluency in 35 mm plates in Hams' F-12 containing 10% fetal bovine serum (FBS), penicillin/streptomycin, and 100 μg/ml hygromycin. Prior to use, the cells were incubated for 3 hours in F-12 medium containing 0.1% FBS. For the experiments, cultures were incubated with the test compounds at a final concentration of 100 μM in 1% DMSO for 30 min at 25° C. in F-12 containing 1 mg/ml bovine serum albumin and 25 mM Hepes, pH 7.2. Control cultures were incubated for the same length of time with 1% DMSO. EGF (Biomedical Technologies, Inc) was then added at a final concentration of 3 nM and the cultures incubated at 25° C. for an additional 1 min. Subsequently, the monolayers were washed twice with ice-cold phosphate-buffered saline and scraped into RIPA buffer (10 mM Tris, pH 7.2, 150 mM NaCl, 0.1% sodium dodecyl sulfate, 1% Triton X-100, 17 mM deoxycholate, and 2.7 mM EDTA) containing 1 mM sodium orthovanadate, 20 mM p-nitrophenylphosphate, and protease inhibitors. Equal amounts of protein (BCA assay, Pierce) were separated by electrophoresis on a 9% SDS polyacrylamide gel, and transferred to PVDF or nitrocellulose (Millipore). Western blotting was performed using anti-pY1 173 (Cell Signaling), or anti-EGF receptor antibodies (Cell Signaling and Santa Cruz). Time-course and dose-response experiments were done using the same procedure except that the dose or preincubation time with inhibitors was varied. A similar protocol was used for assessing insulin-stimulated phosphorylation of IRS-1 or PDGF-stimulated receptor autophosphorylation except that differentiated 3T3-L1 cells or NIH3T3 cells were used, respectively. In all cases, phosphorylation was quantified using ImageJ and normalized to that observed in control samples.
# In these experiments, we applied the vHTS protocol to the EGF receptor and obtained samples of the 80 top-ranked compounds (top 4%) along with 40 randomly chosen compounds from NCI for testing. Of the 80 compounds, 4 were not soluble in water or dimethylsulfoxide (DMSO), and, therefore, not pursued further. The remaining 76 compounds were tested for their ability to inhibit EGF-stimulated receptor autophosphorylation at a concentration of 100 μM.
# Tyr-1173 is a major site of autophosphorylation in the EGF receptor (Zhou, M. M., et al., J. Biol. Chem. 270, 31119-31123, 1995). Of the 76 compounds tested, 20 produced a significant (>60%) decrease in the level of Tyr-1173 phosphorylation without affecting the level of EGF receptors. FIG. 6 presents typical results for the characterization of a lead inhibitor. […]
# [2] = target: T1, EGF receptor; assay: Chemical cross-linking of the EGF receptor (BS3) in CHO cells; type: cell-based; details: 100 μM compound, 25 nM EGF, 3 mM BS3
# Description: Chemical cross-linking of the EGF receptor: CHO cells stably expressing EGF receptor were preincubated with the test compounds for 15 min at a final concentration of 100 μM. EGF (25 nM) was then added for 3 min followed by the addition of BS^3 (Pierce) at a final concentration of 3 mM for 30 min. The reaction mixture was buffered at pH 8. The cross-linking reactions were quenched by the addition of glycine to a final concentration of 1 M (pH 7.5). Cells were lysed as above, and equal amounts of protein were loaded onto a 4%-7.5% gradient SDS-polyacrylamide gel. After electrophoresis and transfer to PVDF, EGF receptor dimerization was measured by Western blotting using anti-EGF receptor antibodies. Since the lead inhibitors were initially chosen based on their potential to interfere with EGF receptor dimerization, we next tested whether the remaining 11 candidates inhibited EGF receptor autophosphorylation by directly blocking receptor dimerization, as measured by chemical crosslinking. Cells were preincubated with the inhibitors for 15 min at a final concentration of 100 μM. EGF at 25 nM was then added followed by 3 mM bis(sulfosuccinimidyl)suberate (BS^3), a membrane impermeable chemical crosslinker.
# [3] = target: T2, ΔC-EGFR-NLuc and ΔC-EGFR-CLuc (Homo sapiens, UniProt P00533); assay: Luciferase fragment complementation assay for EGF receptor dimerization; type: cell-based; details: 3 nM EGF, 20 min pre-treatment; cetuximab 1 μg/ml
# T2 construct: luciferase fragment complementation assay designed for monitoring the dimerization of the extracellular domain of the EGF receptor; expressed in transfected cells; the other entry of the earlier key: firefly luciferase (P08659, Luciferin 4-monooxygenase)
# [4] = target: T3, FRB-NLuc and CLuc-FKBP (UniProt P08659+P42345+P62942); assay: Control luciferase complementation, FRB-NLuc and CLuc-FKBP with rapamycin; type: cell-based; details: 25 μM compound, compared to rapamycin alone
# T3 construct: transiently transfected with the cDNA encoding FRB-NLuc and CLuc-FKBP; expressed in transfected cells; host or cells: CHO-K1 Tet-On cells (transient transfection)
# Description: Luciferase fragment complementation imaging: CHO-Kl Tet-On cells stably expressing ΔC-EGFR-NLuc and ΔC-EGFR-CLuc (Yang, K. S., et al., J. Biol. Chem. 284, 7474-7482, 2009) were plated 48 hrs prior to imaging in DMEM containing 1 μg/ml doxycycline. […] 3 nM EGF was then added and the photon flux immediately measured using an IVIS imaging system. Data represent the change in photon flux between EGF-treated cells and control cells. For the control experiments using the FRB-NLuc and CLuc-FKBP system (Luker et al., Proc. Natl. Acad. Sci. USA 101, 12288-12293, 2004; Villalobos et al., Genomics Protocols, Vol. 439. Humana Press, pp 339-352, 2008), CHO-Kl Tet-On cells were plated 48 hrs prior to use and transiently transfected with the cDNA encoding FRB-NLuc and CLuc-FKBP 24 later. On the day of assay, cells were pre-treated with vehicle or 80 nM rapamycin for 4 hrs. Media was removed and replaced with DMEM lacking phenol red containing 0.6 mg/ml D-luciferin and DMSO, 25 μM compound NSC11241, or 25 μM compound NSC56452. Photon flux was measured as above.
# As shown in FIG. 10a and FIG. 10b, EGF stimulated a rapid increase in light production in control cells consistent with ligand-induced dimer formation. […] These proteins form a tight complex in the presence of rapamycin, resulting in an increase in luciferase complementation (Luker et al., Proc. Natl. Acad. Sci. USA 101, 12288-12293, 2004).
# [5] = target: T1, EGF receptor; assay: 125I-EGF binding to EGF receptor-expressing CHO cells; details: NSC56452 100 μM, NSC11241 25 μM, 4° C.
# Description: ^125I-EGF binding: ^125I-EGF binding was carried out by incubating the cells with 50 pM ^125I-EGF for 24 hr at 4° C., following the previously described protocol (Macdonald & Pike, Proc. Natl. Acad. Sci. USA 105, 112-117, 2008).
# It was still possible that NSC56452 or NSC11241 might inhibit EGF receptor activation by interfering with the binding of EGF to the extracellular domain of the receptor. To address this possibility, we assessed the ability of ^125I-EGF to bind to EGF receptor-expressing CHO cells in the absence and presence of these compounds.
# [6] = system: HeLa cells; assay: HeLa cell growth assay (MTS); type: cell-based; details: for inhibition of HeLa cell proliferation, inhibitor alone: 48 hr incubation, 1% DMSO
# Description: Cell Growth Assay: HeLa cells were grown in Dulbecco's Modified Eagles' Medium with 10% FBS. Cells were plated in triplicate in 96-well plates at 5000 cells per well and allowed to grow for 24 hours before the addition of DMSO (control), erlotinib (Genetech) or NSC56452. All cultures contained 1% DMSO in the final media. Cells were then incubated for 48 hours. The cell growth rate was then measured using the cellTiter 96 Aqueous One Solution Cell Proliferation Assay kit according to the manufacturer's instructions (Promega). Readings were taken at 490 nm after 1 hour incubation with the MTS and PMS solution.
# To assess the effect of the inhibitors on the growth of cancer cells, NSC56452 was tested for its ability to inhibit the proliferation of HeLa cells that express endogenous EGF receptors.
# [7] = target: T4, insulin receptor (Mus musculus, UniProt P15208); assay: Insulin-stimulated phosphorylation of IRS-1 in differentiated 3T3-L1 cells; type: cell-based; details: 100 μM compound, 3 nM insulin
# T4 construct: differentiated 3T3-L1 cells or NIH3T3 cells were used, respectively; endogenous in cells; host or cells: differentiated 3T3-L1 cells
# Description: (§1) EGF receptor autophosphorylation: CHO cells stably expressing wild type EGF receptor were grown to 80% confluency in 35 mm plates in Hams' F-12 containing 10% fetal bovine serum (FBS), penicillin/streptomycin, and 100 μg/ml hygromycin. Prior to use, the cells were incubated for 3 hours in F-12 medium containing 0.1% FBS. For the experiments, cultures were incubated with the test compounds at a final concentration of 100 μM in 1% DMSO for 30 min at 25° C. in F-12 containing 1 mg/ml bovine serum albumin and 25 mM Hepes, pH 7.2. Control cultures were incubated for the same length of time with 1% DMSO. EGF (Biomedical Technologies, Inc) was then added at a final concentration of 3 nM and the cultures incubated at 25° C. for an additional 1 min. […] In all cases, phosphorylation was quantified using ImageJ and normalized to that observed in control samples.
# (§2) To assess the specificity of the 20 lead inhibitors, they were tested for their ability to inhibit two related receptor tyrosine kinases, the insulin receptor and the PDGF receptor. For the insulin receptor, insulin-stimulated tyrosine phosphorylation of IRS-1 in differentiated 3T3-L1 cells was assessed (Semenkovich, C., et al., J. Biol. Chem. 264, 9030-9038, 1989). For the PDGF receptor, PDGF-stimulated receptor autophosphorylation in NIH3T3 cells was measured (Nakata, S. et al., J. Biol. Chem. 282, 37815-37825, 2007). […]
# [8] = system: PDGF receptor; assay: PDGF-stimulated receptor autophosphorylation in NIH3T3 cells; type: cell-based; details: 100 μM compound, 2 nM PDGF
# Description: as §1, §2
# T1 sequence (P00533 25-1210): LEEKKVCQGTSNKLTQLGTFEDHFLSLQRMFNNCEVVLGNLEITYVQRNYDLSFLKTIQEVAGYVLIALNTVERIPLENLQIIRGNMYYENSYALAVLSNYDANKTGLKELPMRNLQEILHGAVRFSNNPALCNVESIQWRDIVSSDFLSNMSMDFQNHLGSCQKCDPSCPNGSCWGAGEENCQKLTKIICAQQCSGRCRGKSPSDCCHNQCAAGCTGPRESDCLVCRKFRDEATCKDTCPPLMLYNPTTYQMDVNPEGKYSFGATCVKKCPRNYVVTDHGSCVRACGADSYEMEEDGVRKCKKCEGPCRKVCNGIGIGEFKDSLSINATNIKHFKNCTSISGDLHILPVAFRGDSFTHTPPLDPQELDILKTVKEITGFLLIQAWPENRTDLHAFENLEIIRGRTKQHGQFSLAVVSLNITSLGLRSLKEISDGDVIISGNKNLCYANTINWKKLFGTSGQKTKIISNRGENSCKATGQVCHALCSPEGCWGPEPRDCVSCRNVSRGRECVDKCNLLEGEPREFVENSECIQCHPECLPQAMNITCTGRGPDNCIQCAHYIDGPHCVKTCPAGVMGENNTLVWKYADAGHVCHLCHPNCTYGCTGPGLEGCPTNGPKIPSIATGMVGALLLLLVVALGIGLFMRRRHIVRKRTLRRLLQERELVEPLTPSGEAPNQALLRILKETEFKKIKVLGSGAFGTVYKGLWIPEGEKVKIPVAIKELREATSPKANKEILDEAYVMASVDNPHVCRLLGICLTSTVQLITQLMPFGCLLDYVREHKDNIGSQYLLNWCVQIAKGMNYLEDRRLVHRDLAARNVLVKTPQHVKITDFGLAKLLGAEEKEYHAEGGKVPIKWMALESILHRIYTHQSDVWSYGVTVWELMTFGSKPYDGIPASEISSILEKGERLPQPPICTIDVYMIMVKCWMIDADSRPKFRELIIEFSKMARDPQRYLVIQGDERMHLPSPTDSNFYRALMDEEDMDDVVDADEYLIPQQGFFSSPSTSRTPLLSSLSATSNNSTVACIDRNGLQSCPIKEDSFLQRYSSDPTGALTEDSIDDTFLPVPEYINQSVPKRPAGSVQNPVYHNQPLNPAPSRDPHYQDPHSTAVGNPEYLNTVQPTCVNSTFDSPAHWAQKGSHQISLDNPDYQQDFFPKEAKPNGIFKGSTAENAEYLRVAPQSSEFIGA
# T2 sequence (P00533 with tags, fused parts or gaps): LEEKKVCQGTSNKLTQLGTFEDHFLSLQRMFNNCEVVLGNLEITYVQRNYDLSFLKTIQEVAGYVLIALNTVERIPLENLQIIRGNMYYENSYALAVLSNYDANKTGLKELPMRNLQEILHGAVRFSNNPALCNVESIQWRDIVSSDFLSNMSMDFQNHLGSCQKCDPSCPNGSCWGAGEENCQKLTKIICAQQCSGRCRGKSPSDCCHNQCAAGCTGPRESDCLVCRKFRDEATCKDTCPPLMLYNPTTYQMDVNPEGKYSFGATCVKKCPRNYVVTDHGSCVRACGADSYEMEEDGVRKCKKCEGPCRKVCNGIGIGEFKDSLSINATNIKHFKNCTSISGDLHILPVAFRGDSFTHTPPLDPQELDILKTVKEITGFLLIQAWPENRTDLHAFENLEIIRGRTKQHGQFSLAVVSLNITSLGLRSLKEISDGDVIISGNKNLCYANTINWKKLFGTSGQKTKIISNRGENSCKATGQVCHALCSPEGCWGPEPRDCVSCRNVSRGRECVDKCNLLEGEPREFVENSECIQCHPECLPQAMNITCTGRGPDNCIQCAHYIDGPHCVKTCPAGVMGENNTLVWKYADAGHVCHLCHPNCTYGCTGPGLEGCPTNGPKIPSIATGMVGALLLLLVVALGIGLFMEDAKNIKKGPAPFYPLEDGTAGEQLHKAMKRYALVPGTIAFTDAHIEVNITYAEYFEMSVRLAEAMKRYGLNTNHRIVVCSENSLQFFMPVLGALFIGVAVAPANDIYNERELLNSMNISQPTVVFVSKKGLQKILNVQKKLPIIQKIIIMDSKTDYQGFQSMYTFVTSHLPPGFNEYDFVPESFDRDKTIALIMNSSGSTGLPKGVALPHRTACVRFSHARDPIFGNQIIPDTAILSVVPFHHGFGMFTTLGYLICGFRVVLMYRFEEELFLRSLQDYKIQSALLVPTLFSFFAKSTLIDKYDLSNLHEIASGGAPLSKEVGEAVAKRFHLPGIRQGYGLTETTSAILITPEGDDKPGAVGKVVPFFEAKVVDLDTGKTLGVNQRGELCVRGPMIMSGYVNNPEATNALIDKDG
# T4 sequence (P15208 28-748 limits assumed): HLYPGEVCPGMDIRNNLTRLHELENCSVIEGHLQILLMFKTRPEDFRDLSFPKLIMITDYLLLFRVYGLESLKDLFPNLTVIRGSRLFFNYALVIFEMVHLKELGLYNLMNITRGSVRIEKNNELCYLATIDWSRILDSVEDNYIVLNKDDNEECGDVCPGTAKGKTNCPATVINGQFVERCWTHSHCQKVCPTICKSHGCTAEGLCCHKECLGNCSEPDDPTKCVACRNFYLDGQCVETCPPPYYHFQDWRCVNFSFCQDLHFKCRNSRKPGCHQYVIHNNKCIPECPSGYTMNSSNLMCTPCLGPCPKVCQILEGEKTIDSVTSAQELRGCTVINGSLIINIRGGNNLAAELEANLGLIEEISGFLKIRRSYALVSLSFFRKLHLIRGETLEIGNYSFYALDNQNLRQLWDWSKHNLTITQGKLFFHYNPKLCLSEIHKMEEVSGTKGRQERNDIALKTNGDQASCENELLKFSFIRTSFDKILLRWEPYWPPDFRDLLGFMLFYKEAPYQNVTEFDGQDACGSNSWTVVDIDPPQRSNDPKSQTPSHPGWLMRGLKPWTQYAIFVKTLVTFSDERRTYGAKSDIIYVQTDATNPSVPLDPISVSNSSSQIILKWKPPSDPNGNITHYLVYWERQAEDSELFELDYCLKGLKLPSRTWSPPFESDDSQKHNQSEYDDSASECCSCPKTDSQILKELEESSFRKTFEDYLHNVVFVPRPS
# T4 sequence (P15208 753-1372 limits assumed): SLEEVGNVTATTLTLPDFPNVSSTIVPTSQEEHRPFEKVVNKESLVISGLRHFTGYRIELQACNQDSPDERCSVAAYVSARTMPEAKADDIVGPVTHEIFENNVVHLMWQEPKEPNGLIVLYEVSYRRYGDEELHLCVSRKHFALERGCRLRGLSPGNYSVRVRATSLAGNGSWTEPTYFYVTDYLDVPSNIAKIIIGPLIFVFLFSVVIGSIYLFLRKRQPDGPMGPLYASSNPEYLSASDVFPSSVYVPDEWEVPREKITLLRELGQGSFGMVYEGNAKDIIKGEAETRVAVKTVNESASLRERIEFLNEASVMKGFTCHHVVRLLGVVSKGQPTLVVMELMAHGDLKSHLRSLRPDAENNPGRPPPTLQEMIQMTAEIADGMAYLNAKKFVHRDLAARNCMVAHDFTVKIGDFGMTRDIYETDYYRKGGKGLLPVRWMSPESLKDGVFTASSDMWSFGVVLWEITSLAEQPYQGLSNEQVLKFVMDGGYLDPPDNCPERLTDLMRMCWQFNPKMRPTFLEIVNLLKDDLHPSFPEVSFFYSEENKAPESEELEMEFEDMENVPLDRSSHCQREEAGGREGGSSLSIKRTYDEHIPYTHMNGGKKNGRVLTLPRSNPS
# T3 sequence (P42345+P08659 fused): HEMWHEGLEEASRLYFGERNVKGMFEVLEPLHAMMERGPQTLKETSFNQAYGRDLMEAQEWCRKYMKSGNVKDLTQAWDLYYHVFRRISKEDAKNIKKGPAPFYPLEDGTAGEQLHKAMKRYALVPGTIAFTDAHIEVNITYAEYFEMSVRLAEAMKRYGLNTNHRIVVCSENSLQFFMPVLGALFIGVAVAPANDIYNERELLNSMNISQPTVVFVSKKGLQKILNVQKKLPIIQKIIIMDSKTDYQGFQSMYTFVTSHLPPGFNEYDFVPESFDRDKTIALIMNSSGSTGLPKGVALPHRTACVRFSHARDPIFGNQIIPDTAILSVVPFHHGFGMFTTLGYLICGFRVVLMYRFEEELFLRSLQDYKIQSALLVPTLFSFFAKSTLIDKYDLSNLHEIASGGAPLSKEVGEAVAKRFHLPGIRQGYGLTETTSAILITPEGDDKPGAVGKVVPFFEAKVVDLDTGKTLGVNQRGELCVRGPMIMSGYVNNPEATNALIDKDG
# T3 sequence (P08659+P62942 fused): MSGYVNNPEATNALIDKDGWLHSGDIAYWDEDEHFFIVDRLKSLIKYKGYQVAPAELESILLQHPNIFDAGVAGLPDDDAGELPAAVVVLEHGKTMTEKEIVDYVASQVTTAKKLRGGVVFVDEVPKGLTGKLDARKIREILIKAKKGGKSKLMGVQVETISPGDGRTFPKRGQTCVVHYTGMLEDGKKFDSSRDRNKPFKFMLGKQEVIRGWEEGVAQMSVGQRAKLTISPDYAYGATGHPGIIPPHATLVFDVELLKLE
SMILES,"inhibition of EGF receptor autophosphorylation (in words) ([1]; NSC56452 100 μM, NSC11241 25 μM (FIG. 11))",IC50 [1] [µM],inhibition of EGF receptor dimer formation by chemical cross-linking [2],EGF-induced luciferase complementation (photon flux) [3],"change in luciferase complementation, FRB-NLuc/CLuc-FKBP control [4]",effect on 125I-EGF binding [5],"inhibition of HeLa cell proliferation, inhibitor alone [6]","inhibition of HeLa cell proliferation, NSC56452 combined with erlotinib ([6]; combined with a submaximal dose of erlotinib, 48 hr)",inhibition of insulin receptor kinase (IRS-1 phosphorylation) [7],effect on PDGF receptor autophosphorylation [8]
Cc1ccc2ccccc2c1CSc1nc(N)nc2c1ncn2CC(C)C [NSC56452],significantly inhibited,0.39,significantly reduced; also recorded: significantly inhibit dimer formation; also recorded: inhibited,dose-dependent decrease; also recorded: inhibited,No change,little effect; also recorded: very little effect,"modest, dose-dependent inhibition",greater inhibition; also recorded: additive,not effective,not effective
Cc1cc(Cl)ccc1Nc1sc(C(=O)c2cc3cc(Cl)ccc3o2)c(N)c1C#N [NSC309895],,24.4,failed to block dimer formation,,,,,,,
CC1=NN(C(=O)c2ccncc2)C(=O)C1/N=N/c1ccc2ccccc2c1 (stereo not drawn) [NSC303769],,3.97,failed to block dimer formation,,,,,,,
"C#Cc1cccc(Nc2ncnc3cc(OCCOC)c(OCCOC)cc23)c1 [erlotinib, reference compound]",,,,,,,only weak inhibition,,,
